Laboratory results published in publication PMC10176470, “Engaging a Non-catalytic Cysteine Residue Drives Potent and Selective Inhibition of Caspase-6” (Journal of the American Chemical Society, 2023).

Tests used:
Type in all cases: cell-based
[1] = molecular target: proteins of HEK293T cells transiently overexpressing caspase-6 (Homo sapiens, UniProt P61247); conditions: protein RPS3A (P61247)
[2] = molecular target: proteins of HEK293T cells transiently overexpressing caspase-6 (Homo sapiens, UniProt P31689); conditions: exp_ref Probe; protein DNAJA1 (P31689); analysis C6
Sequence of proteins of HEK293T cells transiently overexpressing caspase-6 (Homo sapiens, UniProt P31689) (P31689 whole entry): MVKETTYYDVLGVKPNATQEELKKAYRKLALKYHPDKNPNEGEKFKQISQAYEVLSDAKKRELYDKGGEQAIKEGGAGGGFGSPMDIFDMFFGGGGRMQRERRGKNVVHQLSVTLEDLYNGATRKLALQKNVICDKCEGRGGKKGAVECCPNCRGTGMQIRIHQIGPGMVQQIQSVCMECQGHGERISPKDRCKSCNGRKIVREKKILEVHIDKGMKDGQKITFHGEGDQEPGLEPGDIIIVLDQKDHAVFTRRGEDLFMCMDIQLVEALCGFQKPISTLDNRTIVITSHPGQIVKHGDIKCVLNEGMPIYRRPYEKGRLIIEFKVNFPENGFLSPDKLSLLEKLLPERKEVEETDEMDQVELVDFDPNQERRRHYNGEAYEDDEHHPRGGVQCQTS

[3] = molecular target: proteins of HEK293T cells transiently overexpressing caspase-6 (Homo sapiens, UniProt P62826); conditions: exp_ref Probe; protein RAN (P62826); analysis C6
[4] = molecular target: proteins of HEK293T cells transiently overexpressing caspase-6 (Homo sapiens, UniProt P43034); conditions: Probe; protein PAFAH1B1 P43034
Sequence of proteins of HEK293T cells transiently overexpressing caspase-6 (Homo sapiens, UniProt P43034) (P43034 whole entry): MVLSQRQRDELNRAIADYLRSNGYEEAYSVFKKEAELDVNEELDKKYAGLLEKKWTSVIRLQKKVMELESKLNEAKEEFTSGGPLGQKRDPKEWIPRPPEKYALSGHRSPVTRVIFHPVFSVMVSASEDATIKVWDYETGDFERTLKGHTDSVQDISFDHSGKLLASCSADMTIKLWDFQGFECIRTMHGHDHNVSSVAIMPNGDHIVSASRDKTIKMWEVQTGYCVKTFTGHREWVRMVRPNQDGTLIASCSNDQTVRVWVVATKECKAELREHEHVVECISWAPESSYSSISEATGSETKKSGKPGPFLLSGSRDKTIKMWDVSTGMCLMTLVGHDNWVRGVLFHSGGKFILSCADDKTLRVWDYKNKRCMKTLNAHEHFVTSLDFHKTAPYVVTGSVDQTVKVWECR

[5] = molecular target: proteins of HEK293T cells transiently overexpressing caspase-6 (Homo sapiens, UniProt P17844); conditions: exp_ref Probe; protein DDX5 (P17844); analysis C6
Sequence of proteins of HEK293T cells transiently overexpressing caspase-6 (Homo sapiens, UniProt P17844) (P17844 whole entry): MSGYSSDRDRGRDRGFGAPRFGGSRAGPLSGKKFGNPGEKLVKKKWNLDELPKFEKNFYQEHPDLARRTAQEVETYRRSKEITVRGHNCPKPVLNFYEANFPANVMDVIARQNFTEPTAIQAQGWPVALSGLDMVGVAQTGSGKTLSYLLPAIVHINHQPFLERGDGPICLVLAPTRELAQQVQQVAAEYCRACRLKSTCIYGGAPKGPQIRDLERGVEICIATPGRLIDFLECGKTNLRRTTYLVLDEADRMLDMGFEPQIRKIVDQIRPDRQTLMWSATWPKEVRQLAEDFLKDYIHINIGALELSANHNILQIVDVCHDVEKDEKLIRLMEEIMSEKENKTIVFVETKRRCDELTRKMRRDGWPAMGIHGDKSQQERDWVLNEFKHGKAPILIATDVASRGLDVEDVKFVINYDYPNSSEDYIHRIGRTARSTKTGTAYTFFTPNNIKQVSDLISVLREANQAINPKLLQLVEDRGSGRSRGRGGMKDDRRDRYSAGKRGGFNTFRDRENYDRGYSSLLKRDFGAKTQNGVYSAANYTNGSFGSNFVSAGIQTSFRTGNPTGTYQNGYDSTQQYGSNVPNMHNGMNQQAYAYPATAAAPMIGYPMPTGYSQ

[6] = molecular target: proteins of HEK293T cells transiently overexpressing caspase-6 (Homo sapiens, UniProt P09874); conditions: protein PARP1 (P09874)
Sequence of proteins of HEK293T cells transiently overexpressing caspase-6 (Homo sapiens, UniProt P09874) (P09874 whole entry): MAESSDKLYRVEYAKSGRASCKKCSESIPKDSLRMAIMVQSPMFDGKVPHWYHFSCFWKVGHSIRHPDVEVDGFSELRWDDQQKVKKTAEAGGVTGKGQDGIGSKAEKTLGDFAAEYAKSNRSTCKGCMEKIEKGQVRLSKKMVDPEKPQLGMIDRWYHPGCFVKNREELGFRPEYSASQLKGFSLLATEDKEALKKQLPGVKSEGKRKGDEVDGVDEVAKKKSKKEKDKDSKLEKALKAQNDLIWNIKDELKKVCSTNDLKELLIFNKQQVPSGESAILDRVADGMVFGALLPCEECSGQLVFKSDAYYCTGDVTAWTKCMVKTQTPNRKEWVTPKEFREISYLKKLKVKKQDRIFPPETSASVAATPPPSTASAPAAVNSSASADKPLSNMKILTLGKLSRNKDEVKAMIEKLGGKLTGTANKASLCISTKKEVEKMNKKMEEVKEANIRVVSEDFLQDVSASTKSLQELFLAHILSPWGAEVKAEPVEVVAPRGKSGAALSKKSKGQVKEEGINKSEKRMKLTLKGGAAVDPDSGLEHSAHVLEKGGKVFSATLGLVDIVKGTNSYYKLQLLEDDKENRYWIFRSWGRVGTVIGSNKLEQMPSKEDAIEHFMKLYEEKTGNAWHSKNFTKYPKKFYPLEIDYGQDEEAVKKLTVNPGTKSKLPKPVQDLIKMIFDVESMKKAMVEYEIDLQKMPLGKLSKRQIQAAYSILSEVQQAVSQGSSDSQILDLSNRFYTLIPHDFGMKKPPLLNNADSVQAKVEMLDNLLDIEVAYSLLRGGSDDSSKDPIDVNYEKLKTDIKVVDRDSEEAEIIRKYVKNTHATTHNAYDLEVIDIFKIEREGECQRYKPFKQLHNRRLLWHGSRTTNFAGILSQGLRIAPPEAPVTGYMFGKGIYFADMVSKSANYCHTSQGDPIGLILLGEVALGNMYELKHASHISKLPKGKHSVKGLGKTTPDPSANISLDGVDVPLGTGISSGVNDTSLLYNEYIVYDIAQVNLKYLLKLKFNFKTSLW

[7] = molecular target: T1, proteins of HEK293T cells transiently overexpressing caspase-6 (Homo sapiens, UniProt Q8NC51)
T1 sequence (Q8NC51 1-408): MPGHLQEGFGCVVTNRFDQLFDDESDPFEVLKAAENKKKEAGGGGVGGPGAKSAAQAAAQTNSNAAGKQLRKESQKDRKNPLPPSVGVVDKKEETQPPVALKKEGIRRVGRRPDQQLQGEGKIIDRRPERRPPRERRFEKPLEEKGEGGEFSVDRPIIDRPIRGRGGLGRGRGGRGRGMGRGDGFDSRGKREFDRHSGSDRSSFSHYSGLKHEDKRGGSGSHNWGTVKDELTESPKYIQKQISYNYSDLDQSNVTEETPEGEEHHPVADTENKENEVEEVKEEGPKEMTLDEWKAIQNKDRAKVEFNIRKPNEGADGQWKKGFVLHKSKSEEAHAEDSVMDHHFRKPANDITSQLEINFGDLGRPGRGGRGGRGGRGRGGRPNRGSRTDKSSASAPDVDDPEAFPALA

[8] = molecular target: T2, proteins of HEK293T cells transiently overexpressing caspase-6 (Homo sapiens, UniProt P54136); conditions: exp_ref Probe; protein RARS (P54136); analysis C6
T2 sequence (P54136 1-660): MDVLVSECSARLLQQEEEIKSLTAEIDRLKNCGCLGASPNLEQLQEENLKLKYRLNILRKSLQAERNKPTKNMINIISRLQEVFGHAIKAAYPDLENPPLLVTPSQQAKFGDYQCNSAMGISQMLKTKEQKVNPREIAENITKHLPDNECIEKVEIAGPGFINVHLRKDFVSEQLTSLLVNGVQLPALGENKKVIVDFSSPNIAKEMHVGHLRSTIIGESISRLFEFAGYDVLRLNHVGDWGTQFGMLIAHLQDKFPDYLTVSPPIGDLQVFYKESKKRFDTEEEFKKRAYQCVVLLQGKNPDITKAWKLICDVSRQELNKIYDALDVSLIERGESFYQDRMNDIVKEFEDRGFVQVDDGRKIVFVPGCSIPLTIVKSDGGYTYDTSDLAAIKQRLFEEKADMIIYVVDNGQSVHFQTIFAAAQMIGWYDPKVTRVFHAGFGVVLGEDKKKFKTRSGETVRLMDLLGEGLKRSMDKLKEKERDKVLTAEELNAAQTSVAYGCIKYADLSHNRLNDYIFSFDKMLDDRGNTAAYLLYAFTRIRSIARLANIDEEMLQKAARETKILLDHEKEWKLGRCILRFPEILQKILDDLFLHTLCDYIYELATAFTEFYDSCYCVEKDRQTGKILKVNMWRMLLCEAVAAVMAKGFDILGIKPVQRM

[9] = molecular target: proteins of HEK293T cells transiently overexpressing caspase-6 (Homo sapiens, UniProt Q9BRX8); conditions: Probe; protein FAM213A Q9BRX8
Sequence of proteins of HEK293T cells transiently overexpressing caspase-6 (Homo sapiens, UniProt Q9BRX8) (Q9BRX8 whole entry): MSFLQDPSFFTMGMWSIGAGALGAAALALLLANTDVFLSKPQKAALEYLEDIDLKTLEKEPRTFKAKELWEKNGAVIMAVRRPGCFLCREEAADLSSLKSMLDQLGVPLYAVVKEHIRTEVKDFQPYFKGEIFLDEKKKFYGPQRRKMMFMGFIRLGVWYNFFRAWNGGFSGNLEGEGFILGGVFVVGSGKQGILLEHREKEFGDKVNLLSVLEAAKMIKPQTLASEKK

[10] = molecular target: proteins of HEK293T cells transiently overexpressing caspase-6 (Homo sapiens, UniProt P54578); conditions: Probe; protein USP14 P54578
Sequence of proteins of HEK293T cells transiently overexpressing caspase-6 (Homo sapiens, UniProt P54578) (P54578 whole entry): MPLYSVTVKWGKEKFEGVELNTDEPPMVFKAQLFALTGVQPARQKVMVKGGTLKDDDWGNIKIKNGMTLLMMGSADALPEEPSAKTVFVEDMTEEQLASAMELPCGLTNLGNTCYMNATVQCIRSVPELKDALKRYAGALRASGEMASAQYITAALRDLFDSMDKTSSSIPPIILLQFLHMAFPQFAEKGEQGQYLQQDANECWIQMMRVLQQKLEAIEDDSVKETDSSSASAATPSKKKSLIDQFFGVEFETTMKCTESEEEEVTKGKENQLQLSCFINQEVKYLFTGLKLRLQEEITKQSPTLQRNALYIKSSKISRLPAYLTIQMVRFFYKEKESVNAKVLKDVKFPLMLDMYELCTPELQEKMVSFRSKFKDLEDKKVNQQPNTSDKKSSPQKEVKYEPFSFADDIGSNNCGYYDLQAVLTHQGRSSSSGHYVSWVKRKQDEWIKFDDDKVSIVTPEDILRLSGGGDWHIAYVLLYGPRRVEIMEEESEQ

[11] = molecular target: T3, proteins of HEK293T cells transiently overexpressing caspase-6 (Homo sapiens, UniProt P27824); conditions: protein CANX (P27824)
T3 sequence (P27824 21-592): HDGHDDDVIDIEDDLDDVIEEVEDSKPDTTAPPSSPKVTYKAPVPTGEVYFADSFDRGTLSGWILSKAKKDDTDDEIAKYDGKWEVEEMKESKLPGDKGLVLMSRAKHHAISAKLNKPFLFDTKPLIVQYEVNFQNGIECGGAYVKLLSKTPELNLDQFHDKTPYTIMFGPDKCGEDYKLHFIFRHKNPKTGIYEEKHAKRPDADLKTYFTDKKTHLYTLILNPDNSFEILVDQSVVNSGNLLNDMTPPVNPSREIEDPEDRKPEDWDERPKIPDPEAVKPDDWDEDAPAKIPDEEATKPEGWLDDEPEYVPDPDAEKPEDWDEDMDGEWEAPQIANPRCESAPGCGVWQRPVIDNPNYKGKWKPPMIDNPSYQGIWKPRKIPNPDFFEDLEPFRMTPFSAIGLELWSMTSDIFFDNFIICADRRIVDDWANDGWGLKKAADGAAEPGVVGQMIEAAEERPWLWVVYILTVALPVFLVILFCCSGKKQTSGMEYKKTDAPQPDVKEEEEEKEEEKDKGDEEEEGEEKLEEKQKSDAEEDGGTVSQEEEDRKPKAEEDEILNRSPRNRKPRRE

`C#CCOc1ccc([C@@H]2C[C@@H](C(=O)Nc3ccc(OC(F)(F)F)cc3)CN(S(=O)(=O)C=C)C2)cc1` (relative stereo) [13-t] showed an enrich.exp.med ([1]; exp_ref Probe, analysis C6) of 1.085, an enrich.exp.med.lin [1] of 2.121 and an enrich.exp.med.log2 [1] of 1.085. The enrich.exp.med [2] was 0.404, the enrich.exp.med [3] was 0.5777 and the enrich.exp.med [4] was -1.169. It also gave an enrich.exp.med [5] of -0.0188, an enrich.exp.med ([6]; exp_ref Probe, analysis C6) of 0.2769 and an enrich.exp.med.lin [6] of 1.2116. It also gave an enrich.exp.med.log2 [6] of 0.2769, an enrich.exp.med ([7]; Probe, protein SERBP1 Q8NC51) of -1.6881 and an enrich.exp.med.lin ([7]; protein SERBP1 (Q8NC51)) of 0.3103. It also gave an enrich.exp.med.log2 ([7]; protein SERBP1 (Q8NC51)) of -1.6881, an enrich.exp.med [8] of 0.9191 and an enrich.exp.med [9] of -8.503. The enrich.exp.med [10] was -0.5802, the enrich.exp.med ([11]; exp_ref Probe, analysis C6) was 0.4691 and the enrich.exp.med.lin [11] was 1.384. For the same compound, the enrich.exp.med.log2 [11] was 0.4691.
